Data taken from paper PMC4297292 (Cancer Cell, 2015).
pIC50: −log10 of the molar value.

Key:
BRAF = BRAF (Homo sapiens, UniProt P15056); assay: Z'-LYTE kinase assay; assay type: biochemical
CRAF = CRAF (Homo sapiens, UniProt P04049, Y340D/Y341D); assay: Z'-LYTE kinase assay; assay type: biochemical; settings: Table 1
MEK1 = MEK1 (Homo sapiens, UniProt Q02750); assay: Z'-LYTE kinase assay; assay type: biochemical
COT = COT (Homo sapiens, UniProt P41279); assay: Z'-LYTE kinase assay; assay type: biochemical
SRC = SRC (Homo sapiens, UniProt P12931); assay: Z'-LYTE kinase assay; assay type: biochemical; settings: inhibits SRC at
LCK = LCK (Homo sapiens, UniProt P06239); assay: Z'-LYTE kinase assay; assay type: biochemical
[1] = test system: panel of 63 protein kinases; assay: Efficacy against a panel of protein kinases; assay type: biochemical; settings: 1 μM, percent activity compared to DMSO
BRAF^T529N,V600E = assay: BRAF kinase inhibition, gatekeeper mutant; assay type: biochemical
[2] = test system: Ba/F3 cells transformed with BRAF^T529N,V600E; assay: Growth of Ba/F3 cells; assay type: cell-based; settings: [3H]-thymidine incorporation
[3] = Pharmacokinetic studies, plasma, oral and intravenous dosing; assay type: in vivo, Balb/c mice
[4] = Single and repeat dose tolerability / oral toxicity; assay type: in vivo, CD-1 mice; settings: 30 mg/kg for 4 days; oral gavage
[5] = test system: melanoma and colorectal cancer cell lines that are mutant for BRAF; assay: Cell growth inhibition; assay type: cell-based; settings: Figures 2A and 2B
[6] = test system: RAS mutant melanoma and colorectal cancer cells; assay: Cell growth inhibition; assay type: cell-based; settings: Figures 2A and 2B
[7] = test system: cancer cells that are wild-type for BRAF and NRAS; assay: Cell growth inhibition; assay type: cell-based; settings: Figure 2A, in general
SK-Mel 23 cells = assay: Cell growth inhibition; assay type: cell-based; settings: Figure 2A
[8] = test system: MEK and ERK in WM266.4 cells (BRAF mutant); assay: pMEK/pERK immunoblot; assay type: cell-based; settings: 24 hr
[9] = test system: MEK in NRAS mutant D04 cells; assay: pMEK/pERK immunoblot; assay type: cell-based; settings: 24 hr
[10] = test system: ERK activity in SK-Mel 23 cells; assay: pERK immunoblot; assay type: cell-based; settings: 1 μM; 4 hr
BRAF^V600E A375 cells = assay: Cell proliferation assay; assay type: cell-based; settings: CellTiter Glo
NRAS mutant D04 cells = assay: Cell proliferation assay; assay type: cell-based; settings: CellTiter Glo
A375/R cells = assay: Cell proliferation assay; assay type: cell-based; settings: CellTiter Glo
[11] = test system: patient #2 cells (vemurafenib-resistant melanoma); assay: Cell proliferation assay; assay type: cell-based; settings: CellTiter Glo
patient #3 tumor cells = assay: Cell proliferation assay; assay type: cell-based; settings: CellTiter Glo
[12] = test system: cell lines from patient #5 tumor; assay: Cell proliferation assay; assay type: cell-based; settings: CellTiter Glo
A375 cells = assay: Colony formation; assay type: cell-based; settings: 0.5 μM; 20 days
[13] = test system: BRAF^V600E A375 xenograft; assay: Xenograft growth; assay type: in vivo, nude mice; settings: 20 mg/kg/day oral, 7 days/week; nude mice
[14] = test system: NRAS mutant D04 xenograft; assay: Xenograft growth; assay type: in vivo; settings: 20 mg/kg oral daily; nude mice
[15] = test system: A375/R xenograft (PLX4720-resistant A375); assay: Xenograft growth; assay type: in vivo, nude mice; settings: 20 mg/kg oral daily
[16] = test system: PLX4720-resistant PDX from patient #1; assay: PDX growth; assay type: in vivo, NSG mice; settings: PLX4720 45 mg/kg, CCT compounds 20 mg/kg daily gavage
[17] = test system: patient #2 cell xenograft; assay: Xenograft growth; assay type: in vivo, nude mice
patient #3 PDX = assay: PDX growth; assay type: in vivo, NSG mice
[18] = test system: ERK and SRC in patient #3 PDX; assay: pERK/pSFK immunoblot in PDX; assay type: in vivo, mice; settings: PLX4720 45 mg/kg, CCT compounds 20 mg/kg daily gavage
patient #4 PDX = assay: PDX growth; assay type: in vivo, NSG mice
PDX from patient #5 = assay: PDX growth; assay type: in vivo, NSG mice
PDX from patient #13 = assay: PDX growth; assay type: in vivo, NSG mice; settings: 20 mg/kg daily gavage; patient #13 PDX study
[19] = test system: MEK, ERK and SRC/SFKs in patient #2 cells; assay: pMEK, pERK, pSFK immunoblot; assay type: cell-based; settings: 4 hr
[20] = test system: caspase 3 and PARP cleavage in patient #2 cells; assay: PARP and caspase 3 immunoblot; assay type: cell-based; settings: 1 μM; 4 hr
[21] = PLX4720 45 mg/kg, CCT compounds 20 mg/kg daily gavage, NSG mice

Chain of MEK1 (Q02750 whole entry): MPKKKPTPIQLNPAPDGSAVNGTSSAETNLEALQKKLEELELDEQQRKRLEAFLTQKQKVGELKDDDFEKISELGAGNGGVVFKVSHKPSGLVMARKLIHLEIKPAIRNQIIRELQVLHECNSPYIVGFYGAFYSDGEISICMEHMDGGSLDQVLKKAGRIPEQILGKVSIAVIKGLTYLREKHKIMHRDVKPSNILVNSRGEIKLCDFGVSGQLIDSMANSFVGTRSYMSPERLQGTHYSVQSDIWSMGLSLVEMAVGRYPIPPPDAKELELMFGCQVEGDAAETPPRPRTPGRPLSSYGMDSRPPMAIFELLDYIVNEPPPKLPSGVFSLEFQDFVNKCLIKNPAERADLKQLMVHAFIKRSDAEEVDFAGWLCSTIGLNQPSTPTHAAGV
Chain of SRC (P12931 whole entry): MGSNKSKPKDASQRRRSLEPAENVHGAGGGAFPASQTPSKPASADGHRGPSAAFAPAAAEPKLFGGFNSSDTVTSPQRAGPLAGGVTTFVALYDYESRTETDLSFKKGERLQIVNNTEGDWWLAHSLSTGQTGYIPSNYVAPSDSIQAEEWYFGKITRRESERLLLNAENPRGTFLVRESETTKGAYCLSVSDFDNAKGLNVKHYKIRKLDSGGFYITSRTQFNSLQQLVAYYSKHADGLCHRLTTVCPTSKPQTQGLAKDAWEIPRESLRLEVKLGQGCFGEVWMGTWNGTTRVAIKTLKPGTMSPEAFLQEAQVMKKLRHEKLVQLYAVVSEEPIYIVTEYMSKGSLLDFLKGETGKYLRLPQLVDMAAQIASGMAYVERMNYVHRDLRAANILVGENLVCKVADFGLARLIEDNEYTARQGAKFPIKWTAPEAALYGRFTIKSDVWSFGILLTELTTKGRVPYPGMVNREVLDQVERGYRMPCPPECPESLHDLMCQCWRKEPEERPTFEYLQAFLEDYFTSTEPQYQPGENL
Chain of LCK (P06239 whole entry): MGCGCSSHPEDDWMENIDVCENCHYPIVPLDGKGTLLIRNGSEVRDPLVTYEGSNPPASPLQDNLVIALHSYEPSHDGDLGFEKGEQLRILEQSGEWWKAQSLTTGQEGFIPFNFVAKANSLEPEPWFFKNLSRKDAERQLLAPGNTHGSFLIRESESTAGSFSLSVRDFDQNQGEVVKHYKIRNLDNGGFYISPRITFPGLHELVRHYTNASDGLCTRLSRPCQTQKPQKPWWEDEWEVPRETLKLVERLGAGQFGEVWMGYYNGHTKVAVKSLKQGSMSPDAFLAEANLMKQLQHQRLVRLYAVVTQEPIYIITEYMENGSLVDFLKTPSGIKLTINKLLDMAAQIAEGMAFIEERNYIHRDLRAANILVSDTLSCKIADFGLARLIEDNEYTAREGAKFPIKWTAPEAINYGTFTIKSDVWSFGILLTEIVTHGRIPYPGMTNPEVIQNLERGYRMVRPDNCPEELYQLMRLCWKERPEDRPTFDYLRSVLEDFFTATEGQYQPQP
Chain of BRAF (P15056 whole entry): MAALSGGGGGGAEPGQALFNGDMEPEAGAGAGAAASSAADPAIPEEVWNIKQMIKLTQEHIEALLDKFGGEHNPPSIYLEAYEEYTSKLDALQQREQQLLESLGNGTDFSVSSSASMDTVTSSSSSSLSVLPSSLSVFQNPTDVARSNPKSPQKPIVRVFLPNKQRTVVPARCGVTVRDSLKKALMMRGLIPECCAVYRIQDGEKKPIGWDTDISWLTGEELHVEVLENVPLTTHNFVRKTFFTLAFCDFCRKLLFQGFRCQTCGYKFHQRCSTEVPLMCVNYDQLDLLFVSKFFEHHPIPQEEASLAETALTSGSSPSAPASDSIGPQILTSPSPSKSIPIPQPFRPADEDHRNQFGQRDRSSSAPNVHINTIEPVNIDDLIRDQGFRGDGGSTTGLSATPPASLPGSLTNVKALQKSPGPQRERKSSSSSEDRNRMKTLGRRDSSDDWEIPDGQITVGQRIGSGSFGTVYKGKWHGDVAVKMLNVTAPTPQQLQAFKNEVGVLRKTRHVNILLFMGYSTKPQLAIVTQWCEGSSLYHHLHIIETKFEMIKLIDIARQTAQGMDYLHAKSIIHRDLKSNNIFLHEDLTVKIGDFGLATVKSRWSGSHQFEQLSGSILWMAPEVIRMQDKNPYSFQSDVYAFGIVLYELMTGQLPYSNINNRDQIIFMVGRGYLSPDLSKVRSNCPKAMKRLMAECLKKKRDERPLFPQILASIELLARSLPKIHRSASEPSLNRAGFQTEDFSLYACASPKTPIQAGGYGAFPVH
Chain of CRAF (P04049 306-648 Y340D/Y341D limits assumed): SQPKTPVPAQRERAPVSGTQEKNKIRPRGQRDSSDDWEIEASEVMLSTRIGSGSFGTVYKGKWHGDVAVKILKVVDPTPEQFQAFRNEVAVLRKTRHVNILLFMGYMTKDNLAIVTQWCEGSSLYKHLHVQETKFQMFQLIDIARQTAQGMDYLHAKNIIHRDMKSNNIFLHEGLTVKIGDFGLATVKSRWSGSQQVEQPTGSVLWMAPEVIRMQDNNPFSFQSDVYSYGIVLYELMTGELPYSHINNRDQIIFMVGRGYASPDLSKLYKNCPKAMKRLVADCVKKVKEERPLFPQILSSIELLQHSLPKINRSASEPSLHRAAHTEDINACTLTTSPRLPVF
Chain of COT (P41279 whole entry): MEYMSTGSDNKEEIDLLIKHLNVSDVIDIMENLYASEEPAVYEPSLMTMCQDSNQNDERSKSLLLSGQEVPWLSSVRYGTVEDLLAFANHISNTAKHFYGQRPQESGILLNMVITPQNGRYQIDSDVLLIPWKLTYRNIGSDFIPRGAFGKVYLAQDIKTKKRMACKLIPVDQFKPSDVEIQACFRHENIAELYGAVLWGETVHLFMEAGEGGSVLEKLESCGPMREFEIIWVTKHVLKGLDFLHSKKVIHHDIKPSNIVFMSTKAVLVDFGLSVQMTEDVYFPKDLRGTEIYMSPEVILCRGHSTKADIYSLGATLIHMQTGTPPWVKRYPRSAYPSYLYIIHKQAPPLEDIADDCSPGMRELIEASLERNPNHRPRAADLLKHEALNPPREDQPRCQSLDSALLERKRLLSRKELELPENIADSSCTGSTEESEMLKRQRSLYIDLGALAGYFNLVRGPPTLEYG

Question: Which results are given for `CSc1cc(Oc2ccnc3[nH]c(=O)cnc23)ccc1NC(=O)Nc1cc(C(C)(C)C)nn1-c1ccccc1` [CCT241161]?
Answer: pIC50 (BRAF): 6.60; pIC50 (CRAF): 8.22; pIC50 (MEK1): < 5.00; pIC50 (COT): < 5.00; pIC50 (SRC): 7.82; pIC50 (LCK): 8.52; kinases inhibited in a panel of protein kinases [1]: only inhibit SRC, LCK, and the p38 mitogen-activated protein kinases (MAPKs); fold less active against BRAF^T529N,V600E than BRAF^V600E (BRAF^T529N,V600E): 42 fold; fold less sensitive, Ba/F3 cells transformed with BRAF^T529N,V600E vs BRAF^V600E [2]: 19 fold; bioavailability ([3]; Balb/c, mouse, plasma, po, 10 mg/kg): ~55%; area under the curve ([3]; oral 10 mg/kg/day): ~275,000 nM.hr; plasma concentration ([3]; oral 10 mg/kg/day, at 14 hr, 10 mg/kg/day): ~1000 nM; weight loss [4]: do not cause significant weight loss; activity against BRAF mutant cell lines [5]: active; activity against RAS mutant cells [6]: also active; activity against BRAF and NRAS wild-type cancer cells [7]: not active; sensitivity of SK-Mel 23 cells (SK-Mel 23 cells): sensitive; inhibition of MEK and ERK [8]: inhibit MEK and ERK; effect on MEK in NRAS mutant cells [9]: inhibit rather than activate MEK; ERK activity in SK-Mel 23 cells [10]: sensitive; growth inhibition of BRAF mutant melanoma cells, compared with PLX4720 (BRAF^V600E A375 cells): more potently than PLX4720; NRAS mutant cell growth inhibition, compared with PLX4720 (NRAS mutant D04 cells): more efficiently than does PLX4720; sensitivity of PLX4720-resistant A375 cells (A375/R cells): still sensitive; cell line sensitivity [11]: sensitive; cell sensitivity (patient #3 tumor cells): sensitive; cell sensitivity compared with PLX4720 [12]: more sensitive; colony formation under continual exposure (A375 cells): no cells are able to grow; xenograft growth [13]: tumor regression; xenograft growth [14]: inhibit the growth; body weight ([15]; A375/R xenograft study): without causing any body weight loss; xenograft growth ([15]; nude mice): inhibit the growth; PDX sensitivity [16]: remains sensitive; body weight ([17]; 20 mg/kg oral daily, patient #2 xenograft study): without causing any body weight loss; xenograft growth ([17]; PLX4720 90 mg/kg, CCT compounds 20 mg/kg oral daily, nude mice): complete inhibition; body weight (patient #3 PDX; 20 mg/kg daily gavage, patient #3 PDX study): without causing body weight loss; PDX growth (patient #3 PDX; [21]): tumor regression; inhibition of ERK and SRC in PDX [18]: inhibit ERK and SRC; body weight (patient #4 PDX; 20 mg/kg daily gavage, patient #4 PDX study): do not cause body weight loss; PDX sensitivity (patient #4 PDX; [21]): sensitive; body weight (PDX from patient #5; 20 mg/kg daily gavage, patient #5 PDX study): did not observe any loss in body weight; PDX sensitivity compared with PLX4720 (PDX from patient #5; [21]): more sensitive; body weight (PDX from patient #13): no body weight loss was observed; inhibition of SFKs ([19]; 0.5 µM, Figure S3B): also inhibit SFKs; inhibition of MEK, ERK, and SRC ([19]; 1 μM): inhibit MEK, ERK, and SRC; caspase 3 and PARP cleavage (apoptosis) [20]: induce caspase 3 and PARP cleavage
